Test results as given in BindingDB's records for doi:10.1016/j.bioorg.2017.03.014 (University of Karachi, 2017).

What was measured:
[1] = target: T1, Carbonic anhydrase 2 (Bos taurus, UniProt P00921); assay: Carbonic Anhydrase II Inhibition Assay; conditions: pH 7.4; 25 °C
Experimental: In this assay, 4-nitrophenyl acetate (4-NPA), a colorless compound, was hydrolyzed to 4-nitrophenol and […]. The reaction was followed by measuring the formation of 4-nitrophenol, a yellow colored compound. The reaction was performed at 25 °C inbuffer containing HEPES and Tris-HCl at a total concentration of 20 mM and pH of 7.4 for each sample. The reaction mixture contained 140 μL of the HEPES-tris solution, 20 μL of freshly prepared aqueous solution of purified bovine erythrocyte CA-II (0.1 mg/mL of deionized water for 96-well), 20 μL of test compound in DMSO (10% final concentration), 20 μL of substrate 4-NPA at a concentration of 0.7 mM diluted in ethanol. The reaction was initiated by addition of 4-NPA after 15 min incubation of test compound, and each compound was tested 3-times at different concentrations. In this assay, the reaction was performed using 96-well plates.

[2] = target: T1, Carbonic anhydrase 2; assay: Carbonic Anhydrase II Kinetic Assay; conditions: pH 7.4
Experimental: Kinetic studies were performed by using different concentration of inhibitors over different concentrations of substrate (4-NPA) such as 0.175, 0.35, 0.70 and 1.40 mM. The enzyme 0.2 mg/mL concentration for each well was used after dissolving in de-ionized water. HEPES-tris ammonia was used as buffer at pH of 7.4. The change in absorbance was measured by keeping the 96-well flat bottom plate in ELISA reader (Spectra max 384, Molecular Devices USA) after addition of substrate for a period of 30 min at 25 °C with 1 min interval.

T1 sequence (P00921 whole entry): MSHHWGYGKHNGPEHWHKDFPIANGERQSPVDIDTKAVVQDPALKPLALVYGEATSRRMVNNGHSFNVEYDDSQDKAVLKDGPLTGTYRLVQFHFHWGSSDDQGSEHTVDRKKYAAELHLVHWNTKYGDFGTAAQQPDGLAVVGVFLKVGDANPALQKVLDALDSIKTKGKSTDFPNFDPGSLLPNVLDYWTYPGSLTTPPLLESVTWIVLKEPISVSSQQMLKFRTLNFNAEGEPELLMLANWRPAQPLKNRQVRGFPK

O=C(N/N=C/c1ccccc1Br)N/N=C/c1ccccc1Br [N'',N'''-Bis[(E)-(2-bromophenyl)methylidene]carbonic dihydrazide (5)] gave an IC50 [1] of 3960 nM.
For O=C(N/N=C/c1ccc([N+](=O)[O-])cc1)N/N=C/c1ccc([N+](=O)[O-])cc1 [N'',N'''-Bis[(E)-(4-nitrophenyl)methylidene]carbonic dihydrazide (1)], the Ki [2] was 2350 nM and the IC50 [1] was 1330 nM.
With O=C(N/N=C/c1ccccc1Cl)N/N=C/c1ccccc1Cl [N'',N'''-Bis[(E)-(2-chlorophenyl)methylidene]carbonic dihydrazide (7)] the Ki [2] was 4120 nM and the IC50 [1] was 2330 nM.
Molecule O=C(N/N=C/c1ccc(Cl)cc1Cl)N/N=C/c1ccc(Cl)cc1Cl [N'',N'''-Bis[(E)-(2,4-dichlorophenyl)methylidene]carbonic dihydrazide (8)] has an IC50 [1] of 2670 nM.
Work on O=C(N/N=C/c1ccc(Br)cc1)N/N=C/c1ccc(Br)cc1 [N'',N'''-Bis[(E)-(4-bromophenyl)methylidene]carbonic dihydrazide (4)] yielded a Ki [2] of 2520 nM and an IC50 [1] of 2320 nM.
O=C(N/N=C/c1cc([N+](=O)[O-])ccc1Cl)N/N=C/c1cc([N+](=O)[O-])ccc1Cl [N'',N'''-Bis[(E)-(2-chloro-5-nitrophenyl)methylidene]carbonic dihydrazide (3)] gave a Ki [2] of 3580 nM and an IC50 [1] of 1370 nM.
O=C(N/N=C/c1ccccc1[N+](=O)[O-])N/N=C/c1ccccc1[N+](=O)[O-] [N'',N'''-Bis[(E)-(2-nitrophenyl)methylidene]carbonic dihydrazide (2)] gave a Ki [2] of 1810 nM and an IC50 [1] of 1850 nM.
Work on O=C(N/N=C/c1c(Cl)cccc1Cl)N/N=C/c1c(Cl)cccc1Cl [N'',N'''-Bis[(E)-(2,6-dichlorophenyl)methylidene]carbonic dihydrazide (9)] yielded a Ki [2] of 1780 nM and an IC50 [1] of 1460 nM.
